Measured values published in US20220193185A1, “COMBINATION OF SYNTHETIC PEPTIDES WITH AFFINITY TO THE TGF-ß RECEPTOR AND WITH AFFINITY TO THE IL-10 RECEPTOR, PHARMACEUTICAL COMPOSITION AND THEIR USE AS IMMUNOMODULATORS IN THE TREATMENT OF AUTOIMMUNE, INFLAMMATORY OR ALLERGIC DISEASES” (Universidade Federal de Uberlândia, priority 2019, published 2022).
Bridges are numbered along the chain shown (N, C = ends). Where no end group is shown, it is not given here.

Key:
Treg cells = experiment: flow cytometry of CD4+CD25+Foxp3+ cells in splenocytes from BALB/c mice; assay type: in vivo
Description: To investigate the influence of synthesized peptides mimetic to TGF-β1 on Treg induction specific to Phl p5 during allergic sensitization, we analyzed splenocytes from BALB/c mice using flow cytometry. We sought to investigate CD4+CD25+Foxp3+cells expressing GATA3, CTLA4 or KI67, as these factors are necessary for the survival and function of Treg cells. […] The percentage of CD4+CD25+Foxp3+T cells expressing the CTLA4 factor in mice without sensitization and sensitized with Phl p 5 was 5.62% and 9.46%, respectively, while in mice treated with Pep 2-TGF-β1 this value was 12.5% (FIG. 10C-D).

[1] = test system: TGF-β1 receptor on A549 cells; experiment: ELISA on cells of the A549 line using anti-TGF-β1 antibody; assay type: binding, human
Protocol: The peptides described in this patent application were selected using the Phage Display (PD) methodology. The selection was performed by evaluating the ability of said peptides to recognize the TGF-β1 receptor on A549 cells, using an ELISA assay. MaxiSorp 96-well microtiter plates were coated with 1×10^6 cells diluted in PBS and incubated overnight at 4° C. Cells were blocked with 3% PBS-BSA for 1 h at 37° C., washed once with PBS and incubated with […] of each TGF-β1 mimetic peptide or 5 ng/ml of recombinant TGF-β1 for 1 h at 37° C. After washing, the plate was incubated for 1 h at 37° C. with anti-TGF-β1 antibody. The plate was washed and incubated with HRP-labeled anti-human IgG antibody for 1 h at 37° C. After washing, TMB substrate solution was added to the plate; the reaction was stopped by adding the 2N H2SO4 solution and read at 492 nm in a microplate reader.
To investigate whether the synthesized peptides could bind to cell receptors, an ELISA assay was performed on cells of the A549 line using commercial anti-TGF-β1 antibody.

[2] = test system: TH2 polarization in skin-draining inguinal lymph node cells; experiment: TH2 polarization in IL-4 reporter (4get) mice, GFP+CD4+ lymphocytes by flow cytometry; assay type: in vivo; conditions: 5 days after immunization, administered with grass pollen extract
Description: TH2 lymphocytes produce cytokines such as IL-4, IL-5 and IL-13 and lead to the class shift of immunoglobulin production from B cells to IgE, which triggers the allergic reaction. To investigate whether synthesized peptides mimetic to TGF-β1 can modulate TH2 polarization in the presence of grass pollen extract or rPhl p 5, we used an IL-4 reporter mouse. 4get mice express GFP as part of a bicistronic IL-4-IRES-GFP mRNA, allowing the identification of cells expressing IL-4 in situ during an allergen-induced TH2 response. In this experiment, we use skin-draining inguinal lymph node cells to monitor the TH2 response. […] In summary, in this IL-4 mice model, Pep 2 administered in combination with grass pollen extract was able to inhibit TH2 polarization in skin-draining inguinal lymph node cells.

[3] = test system: mice sensitized by Phl p5; experiment: murine sensitization model with recombinant Phl p5: antibody response; assay type: in vivo
Description: We then tested the ability of the synthesized TGF-β1 mimetic peptides to modulate the in vivo immune response during allergic sensitization to Phl p 5. We selected as an example Pep 2-TGF-β1 to show the results. […] Therefore, Pep 2-TGF-β1 modulated Phl p5-specific antibody responses in mice.

[4] = test system: splenocytes of mice sensitized with Phl p 5; experiment: ELISPOT of splenocytes stimulated with Phl p5; assay type: in vivo
Protocol: (§1) To determine the number of splenic cells producing IFN-g, IL-4 and IL-10 in all groups of mice, an ELISPOT assay was performed. […] To investigate the cytokine profile in supernatants from restimulated splenocytes, a Luminex Multiplex cytokine analysis kit was used. […] Furthermore, an increase in IL-10 levels was observed.

[5] = test system: splenocytes of mice sensitized with Phl p 5; experiment: Luminex Multiplex cytokine analysis of supernatants from restimulated splenocytes; assay type: in vivo
Protocol: as §1

IL-8 gene expression = experiment: luciferase reporter under control of the IL-8 promoter in TNF-α stimulated A549 cells; assay type: cell-based, human
Description: First, we tested the ability of the synthesized peptides to recognize TGF^RII on the surface of Jurkat cells, immortalized human T lymphocytes, using ELISA. The recombinant TGFβ (rTGFβ1) was used as a positive control. […] To investigate IL-8 cytokine production, we used an immortalized human lung epithelial cell line (A549), which plays an important role in the first defense line to foreign compounds. […] A mediator release assay, based on rat basophilic leukemia (RBL) cells bearing humanized FIERI receptor, was performed to investigate the effect of the synthesized peptides on IgE-mediated degranulation of basophils in an already sensitized system. This sensitive cell-based assay may help to understand the action of the mimetic peptide in an established allergic microenvironment.

Jurkat cells = experiment: cytokine secretion in MMA-stimulated Jurkat cells; assay type: cell-based, human
IFN signaling pathway = IFN signaling pathway in Jurkat-Dual reporter cells, SEAP production; assay type: cell-based; conditions: after 12, 24 and 48 hours; results depend on concentration
Protocol: (§2) In order to investigate the ability of synthetic peptides with affinity to the Interleukin-10 receptor to interfere in the NFkB, IFN and TLR4 pathways, reporter cell lines were used. To analyze whether the isolated peptides (without activation molecules) could induce any type of activation, the isolated peptides were tested in cell lines during 12, 24 and 48 hours of treatment. […] As an example, FIG. 13A, FIG. 13B, and FIG. 13C show an analysis of NFkB expression after stimulation with the synthesized IL-10 receptor affinity synthetic peptides described herein. Cells were treated for 12, 24 and 48 hours with the synthesized peptides Pep 1-IL10, Pep 2-IL10, Pep 3-IL10 and Pep 4-IL10, at different concentrations, without activating molecules. Luciferase was then measured after 12 hours of treatment (FIG. 13A), 24 hours of treatment (FIG. 13B) and 48 hours of treatment (FIG. 13C). […] TNF-α (200 ng/mL) was used as a positive control.
The most significant results will be described below. […] When cells were pretreated with IFN, although peptides at some concentrations indicated results, they were not statistically sufficient. Therefore, we cannot confirm whether they were able to interfere with pathway activation (FIGS. 17 A, B and C) in an equal or better way than the negative control (rIL-10). In the assays shown by FIGS. 16 (A, B and C) and FIGS. 17 (A, B and C), analysis of IFN expression was performed in Jurkat-Dual reporter cells. In the assays shown by FIGS. 16 A, B and C, cells were treated for 1 hour with peptides with further addition of IFN-α (104 EU/ml). Secreted Embryonic Alkaline Phosphatase (SEAP) production was measured after 12 hours of treatment (FIG. 16A), 24 hours of treatment (FIG. 16 B) and 48 hours of treatment (FIG. 16 C). In the assays shown by FIGS. 17A, B and C, cells were treated for 1 hour with IFN-α (104 EU/ml) with further addition of the peptides. SEAP production was measured after (A) 12 hours of treatment (B), 24 hours of treatment and (C) 48 hours of treatment. IFN-α (104 EU/ml) was used as a positive control and rlL-10 (0.4 ng/ml) as a negative control. *P<0.05.

TLR4 signaling pathway = TLR4 signaling pathway in HEK cells, SEAP production (IL-10 mimetic peptides); assay type: cell-based; conditions: cells pretreated with LPS 100 ng/ml, peptides added; 12 hours
Protocol: as §2
HEK cells were used to investigate the ability of the synthesized peptides Pep 1-IL10, Pep 2-IL10, Pep 3-IL10 and Pep 4-IL10 to modulate the activation of the TLR4 signaling pathway after 12 hours of treatment. […]
In the assay shown by FIG. 14A cells were treated 1 hour with peptides and LPS (100 ng/ml) was added. SEAP production was measured after 12 hours of treatment. […] SEAP production was measured after 12 hours of treatment. […]

NFkB pathway = experiment: NFkB expression in Jurkat-Dual reporter cells, luciferase (IL-10 mimetic peptides); assay type: cell-based; conditions: without activating molecules; 12, 24 and 48 hours; different concentrations
Protocol: as §2
The assay was then carried out using TNF-α as activation molecule not only in the control, but after a pretreatment with the synthesized peptides Pep 1-IL10, Pep 2-IL10, Pep 3-IL10 and Pep 4-IL10, at different concentrations. All peptides were able to modulate NFKB activation after 12, 24 and 48 hours, with different results depending on the concentrations used. […] In the assays shown by FIGS. 14 A, B and C, analysis of NFkB expression was performed in Jurkat-Dual reporter cells. Cells were treated for 1 hour with peptides and TNF-α (200 ng/ml) added. Luciferase was measured after 12 hours of treatment (FIG. 14A), 24 hours of treatment (FIG. 14B) and 48 hours of treatment (FIG. 14C).
Another assay was then performed in which cells were pretreated with TNF-α and the synthesized peptides Pep 1-IL10, Pep 2-IL10, Pep 3-IL10 and Pep 4-IL10, at different concentrations, were added later. All peptides were able to modulate NFKB activation after 12, 24 and 48 hours, with different results depending on the concentrations used. The most significant results will be described below. […] After 48 hours of treatment, Pep 1-IL-10 at a concentration of 0.001 μM (P<0.05) was the one that obtained a result with the highest statistical significance in the decrease of NFKB signaling (FIG. 15C). In the assays shown by FIGS. 15 A, B and C, analysis of NFkB expression was performed in Jurkat-Dual reporter cells. Cells were treated for 1 hour with TNF-α (200 ng/ml) and peptides were added. Luciferase was measured after 12 hours of treatment (FIG. 15A), 24 hours of treatment (FIG. 15B) and 48 hours of treatment (FIG. 15C). TNF-α (200 ng/mL) was used as a positive control and rlL-10 (recombinant Interleukin-10) (0.4 ng/mL) as a negative control. *P<0.05; **P<0.005; ***P<0.0005.

Substance: Pep 2-TGF-β1: synthetic peptide with affinity to the TGF-β receptor, SEQ ID N 02, with disulfide bridges (HACESPLKRQCGGGS; disulfide 3-11)
- Treg cells expressing the factor GATA3 (of total T cells) (Treg cells; mice sensitized with Phl p5 and treated, control 16.1%, sensitized 16.2%): 43.9%
- percentage of CD4+CD25+Foxp3+T cells expressing the CTLA4 factor (Treg cells; mice sensitized with Phl p5 and treated, no sensitization 5.62%, sensitized 9.46%): 12.5%
- percentage of CD4+CD25+Foxp3+cells expressing factor KI67 (Treg cells; vs Phl p5-sensitized mice, not significantly different): enriched
- recognition of receptor-bound peptide by anti-TGF-β1 antibody compared to recombinant TGF-β1 [1]: in the same way that the antibody recognized the TGF-β1 recombinant molecule
- TH2 polarization (GFP+CD4+ lymphocytes) [2]: suppressed TH2 polarization
- degranulation of RBL cells sensitized with sera from treated mice vs Phl p 5 immunized group ([3]; 1 μM, intradermal immunization with Phl p5): significantly lower levels of degranulation
- serum IgA levels (ELISA) ([3]; mice sensitized by Phl p5): increased levels of IgA
- serum IgE levels (ELISA) ([3]; mice sensitized by Phl p5): suppressed
- serum IgG1 levels (ELISA) ([3]; mice sensitized by Phl p5): suppressed
- serum IgG2a levels (ELISA) ([3]; mice sensitized by Phl p5, not statistically significant): suppressed
- IFN-g secreted by splenocytes (ELISPOT) vs untreated mice [4]: significantly lower
- IL-4 secreted by splenocytes (ELISPOT) vs untreated mice [4]: significantly lower
- IL-10 levels of splenocytes (ELISPOT) vs untreated mice [4]: significantly higher
- IFN-g secretion in splenocyte supernatant vs untreated mice [5]: significantly lower
- IL-2 secretion in splenocyte supernatant vs untreated mice [5]: significantly lower
- IL-4 secretion in splenocyte supernatant vs untreated mice [5]: significantly lower
- IL-5 secretion in splenocyte supernatant vs untreated mice [5]: significantly lower
- IL-10 secretion in splenocyte supernatant vs untreated mice [5]: higher
- IL-13 secretion in splenocyte supernatant vs untreated mice [5]: significantly lower

Substance: rTGFβ: recombinant TGFβ (rTGFβ1) used as a positive control
- IL-8 gene expression (luciferase reporter) (IL-8 gene expression): decreased IL-8 gene expression
- IL-10 secretion (Jurkat cells): increased IL-10 secretion
- TNF-α secretion (Jurkat cells): significantly decreased TNF-α secretion

Substance: Pep 2-IL-10: synthetic peptide with affinity to the Interleukin-10 receptor, SEQ ID NO: 10, without disulfide bridge (HASSAVIKSSSGGGS)
- modulation of the activation of the IFN signaling pathway (IFN signaling pathway): able to modulate the activation of the IFN signaling pathway
- concentrations that significantly reduced TLR4 pathway activation (TLR4 signaling pathway): 100 μM (P<0.05), 1 μM (P<0.005), 0.5 μM (P<0.05), 0.1 μM (P<0.05), 0.05 μM (P<0.05) and 0.01 μM
- induction of NFkB expression by peptides alone (NFkB pathway): not able to induce any response
